# Assay results from patent US20260265267A1, “NOVEL COMPOUNDS WITH MTORC2-INHIBITORY ACTIVITY AND USES THEREOF” (Aliad Biopharma, priority 2023, published 2026).
# Columns and labels:
# [1] = system: LC3-II; test: LC3-II formation as indicator of autophagy in HeLa cells (Western blot); type: cell-based, human; details: 9 hours; for activity at 40 µM: Homo sapiens, read-out: LC3-II (% control)
# How it was run: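 HeLa cells were treated with compounds at 40 μM for 9 h, then lysed in RIPA buffer and analysed by Western blot with chemiluminescent detection. LC3-II signal normalized to pan-Akt and expressed as percent of the DMSO vehicle control.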
# [2] = system: 5×FAD Alzheimer's disease model mice; test: Passive avoidance test in 5×FAD mice (long-term memory); type: in vivo
# Procedure: In order to evaluate the efficacy of HN2210, HN2213, and HN2313 on Alzheimer's disease-related symptoms, specifically regarding 1) memory and cognitive impairment, 2) amyloid plaques, 3) neurofibrillary tangles (NFTs), and 4) brain inflammation, an in vivo efficacy assessment of HN2210, HN2213 and HN2313 was conducted using 5×FAD Alzheimer's disease model mice. The 5×FAD mice were purchased from Jackson Lab, USA (Cat #034840-JAX) and crossed once with C57bl6 mice to produce F1 heterozygous offspring (Het). The compound was administered via intraperitoneal injection to 6-month-old 5×FAD Het mice, followed by behavioral testing. The normal control mice, which were littermates of the 5×FAD Het mice, were aged to 6 months and received DMSO injection at the same volume.
# Specifically, to mice trained to avoid bright light three times daily, an electric foot shock (1 mA, 300 g) was applied for 3 seconds in a dark room at the same time on the next day. After 24 hours, the mice were placed again in the same room, and the avoidance response by light, that is, the time taken to move from the bright room to the dark room was measured. At 24 hours after habituation training, the mice were placed back into the bright room, and the latency time for entering the dark room was recorded over a period of 720 seconds.
# [3] = 5 mg/kg, 14 days / 2 weeks (FIG. 7)
Compound,increase in LC3-II ([1]; 40 μM),activity at 40 µM [1],"passive avoidance latency time, % of the normal control level ([2]; 0.2 mg/kg, 14 days (FIG. 8d))","passive avoidance latency time, increase compared to 5×FAD-DMSO mice ([2]; 0.2 mg/kg, 14 days (FIG. 8d))","passive avoidance latency time, % of the normal control level ([2]; 1 mg/kg, 14 days (FIG. 8d))","passive avoidance latency time, increase compared to 5×FAD-DMSO mice ([2]; 1 mg/kg, 14 days (FIG. 8d))","passive avoidance latency time, increase compared to 5×FAD-DMSO mice ([2]; 5 mg/kg, 14 days (FIG. 7))","passive avoidance latency time, % of the normal control level ([2]; 5 mg/kg, 14 days (FIG. 8d))","passive avoidance latency time, increase compared to 5×FAD-DMSO mice ([2]; 5 mg/kg, 14 days (FIG. 8d))","passive avoidance latency time, % of the normal control level [2, 3]",decrease in LC3-II ([1]; 40 μM)
"O=C1c2cc(F)c(N3CCOCC3)cc2COc2cc3c(cc21)OCO3 [HN2210, 8-(morpholino)-9-fluoro[2]benzoxepino[3,4-f]-1,3-benzodioxol-11(6H)-one]",22%,108%,approximately 56%,2.97 fold,~83%,4.39 fold,5.16 fold,~97%,5.16 fold,approximately 84%,
"O=C1c2cc(F)c(NCc3ccccc3)cc2COc2cc3c(cc21)OCO3 [HN2213, 8-(benzylamino)-9-fluoro[2]benzoxepino[3,4-f]-1,3-benzodioxol-11(6H)-one]",,67%,,,,,4.52 fold,,,~74%,33%
"O=C1c2cc(F)c(NC3CCCC3)cc2COc2cc3c(cc21)OCO3 [HN2313, 8-(cyclopentylamino)-9-fluoro-[1,3]dioxolo[4′,5′:4,5]benzo[1,2-b]benzo[e]oxepin-11(6H)-one]",62%,162%,,,,,5.86 fold,,,~96%,
